{"source": "patent EP0355234A1", "about": "“Pyrazolopyridine derivatives as antiatherosclerotic and antihypercholesterolemic agents” (MERRELL DOW PHARMACEUTICALS INC., priority 1988, dated 1990)", "system": "Hypercholesterolemic Rabbit", "assay": "Antiatherosclerotic and antihypercholesterolemic effects in the hypercholesterolemic (2% cholesterol diet) rabbit, six weeks of treatment", "assay_type": "in vivo, New Zealand white male rabbits", "conditions": "mean ± standard deviation; for % of thoracic arota covered by plaque / Aortic arch cholesterol: 6 weeks treatment; for % of thoracic arota covered by plaque: Sudan Black stain, cut-weight planimetry, positive control Group 2: 70.57±9.54; for Aortic arch cholesterol: positive control Group 2: 15.82±4.64; for Serum Cholesterol: after 6 wks treatment, positive control Group 2: 2475±434", "procedure": "Four groups of New Zealand white male rabbits (weighing 1-2 kg) were treated for six weeks according to the following treatment schedule [all injections were in volumes corresponding to 0.1 ml/kg subcutaneously (s.c.)]: • Group 1 maintained on normal rabbit chow; received polyethylene glycol 300 (PEG ) injection twice daily. • Group 2 (Positive Control) maintained on rabbit chow containing 2% by weight cholesterol; received PEG injection twice daily. • Group 3 maintained on rabbit chow containing 2% by weight cholesterol; received 4,7-dihydro-1,6-dimethyl-4-(2-methylphenyl)-3-(2-methylpropyl)-1H-pyrozolo[3,4-b]pyridine-5-carboxylic acid methyl ester monohydrochloride (compound 1A) at a dose of 1 mg/kg in PEG twice daily. • Group 4 maintained on rabbit chow containing 2% by weight cholesterol; received compound 1A at a dose of 10 mg/kg in PEG twice daily.\nThe body weight of each rabbit was measured weekly. At three week and six week intervals after the start of treatment, blood samples were obtained from each rabbit and determinations of platelet aggregation, serum cholesterol, triglycerides, electrolyte concentrations and hematological parameters were performed.\nSix weeks after the start of treatment, the animals were sacrificed. Aortic arches and thoracic aortas were removed and were dissected free of extraneous tissues. The aortic arches were weighed, homogenized in isopropanol, and determinations of cholesterol, triglycerides and electrolyte concentrations were performed. Thoracic aortas were slit down the ventral surface and stained for lipoproteins and lipids by immersion for 5 min in Sudan Black according to the method of Gradwohl (Gradwohl's Clinical Laboratory Methods and Diagnosis (1980) Vol. 1, Edition 8, Chapter 25, pg 771; Sonnenwerth and Jarett, editors, The C.V. Mosby Company, St. Louis, Toronto, London). The percentage of luminal surface covered by atherosclerotic plaque was assessed by \"cut-weight\" planimetry of the projected image according to the method of Willis et al. (Arteriosclerosis 5, 250 (1985)) whereby the photographic image was projected at a magnification of 7 to 10 and the outer border of the tissue and the boundary between plaque and uninvolved tissue were traced and the appropriate areas were cut out and weighed.", "key": {"[1]": {"conditions": "Group 3: 1 mg/kg bid s.c. in PEG"}, "[2]": {"conditions": "Group 4: 10 mg/kg bid s.c. in PEG"}}, "note": "Where a name gives a salt, the structure may show the parent alone.", "data": [{"compound": "COC(=O)C1=C(C)Nc2c(c(CC(C)C)nn2C)C1c1ccccc1C", "note": "(stereo not drawn) [Compound 1A, 4,7-dihydro-1,6-dimethyl-4-(2-methylphenyl)-3-(2-methylpropyl)-1H-pyrozolo[3,4-b]pyridine-5-carboxylic acid methyl ester monohydrochloride]", "values": [{"measurement": "% of thoracic arota covered by plaque", "setting": "[1]", "value": "34.33±19.03", "unit": "%"}, {"measurement": "Aortic arch cholesterol", "setting": "[1]", "value": "9.57±1.38", "unit": "µg/mg wet wt."}, {"measurement": "Serum Cholesterol", "setting": "[1]", "value": "1919 ± 345", "unit": "mg/dL"}, {"measurement": "% of thoracic arota covered by plaque", "setting": "[2]", "value": "36.71±9.95", "unit": "%"}, {"measurement": "Aortic arch cholesterol", "setting": "[2]", "value": "9.27±1.91", "unit": "µg/mg wet wt."}, {"measurement": "Serum Cholesterol", "setting": "[2]", "value": "1774 ± 300", "unit": "mg/dL"}]}]}
